Reference: patent US9849125B1, “Anti-overingestion dosage forms” (BANNER LIFE SCIENCES LLC, priority 2015, dated 2017)

Test: In vitro dissolution of multiple capsules together in 0.1 N HCl (USP Apparatus II)
Format: physicochemical
Protocol: To test the anti-over ingestion properties of the pharmaceutical composition, multiple capsules were combined in a single reaction vessel and percentage of API released was measured. […] The in vitro dissolutions studies of dextromethorphan from Amberlite™ IRP69 from multiple capsules (1, 5, and 10) were carried out in 0.1 HCl with each 200 mg capsule containing 40 mg of the drug.
An additional experiment was performed to support the concept that the ceiling effect was not caused by solubility/sink limitation, but rather by retention by sequestering.
Next, the possibility to gain the same sequestering effect using physical blend of drug with resin instead of drug resinate complex was explored.

COc1ccc2c(c1)[C@]13CCCC[C@@H]1[C@H](C2)N(C)CC3 [dextromethorphan]
release from 1 capsule (40 mg) vs 10 capsules (400 mg) without resin: dose proportional release
